Test results reported in US20090285773A1, “Hepatitis C Virus Inhibitors” (Bristol-Myers Squibb Company, priority 2008, published 2009).
pEC50, pIC50: −log10 of the molar value.

Key:
[1] = system: HCV replicon (strain 1b) in HUH-7 cells; experiment: HCV replicon FRET assay; format: cell-based; conditions: Hepatitis C virus, Huh-7; Table 2; replicon assay variant and unit inferred; read-out: EC50
Text: An HCV replicon whole cell system was established as described by Lohmann V, Korner F, Koch J, Herian U, Theilmann L, Bartenschlager R., Science 285(5424): 110-3 (1999). This system enabled us to evaluate the effects of our HCV Protease compounds on HCV RNA replication. Briefly, using the HCV strain 1b sequence described in the Lohmann paper (Assession number:AJ238799), an HCV cDNA was synthesized by Operon Technologies, Inc. (Alameda, Calif.), and the full-length replicon was then assembled in plasmid pGem9zf(+) (Promega, Madison, Wis.) using standard molecular biology techniques. The replicon consists of (i) the HCV 5′ UTR fused to the first 12 amino acids of the capsid protein, (ii) the neomycin phosphotransferase gene (neo), (iii) the IRES from encephalomyocarditis virus (EMCV), and (iv) HCV NS3 to NS5B genes and the HCV 3′ UTR. Plasmid DNAs were linearized with ScaI and RNA transcripts were synthesized in vitro using the T7 MegaScript transcription kit (Ambion, Austin, Tex.) according to manufacturer's directions. In vitro transcripts of the cDNA were transfected into the human hepatoma cell line, HUH-7. […] Resulting cell lines were characterized for positive and negative strand RNA production and protein production over time.
The HCV replicon FRET assay was developed to monitor the inhibitory effects of compounds described in the disclosure on HCV viral replication. HUH-7 cells, constitutively expressing the HCV replicon, were grown in Dulbecco's Modified Eagle Media (DMEM) (Gibco-BRL) containing 10% Fetal calf serum (FCS) (Sigma) and 1 mg/ml G418 (Gibco-BRL). Cells were seeded the night before (1.5×10^4 cells/well) in 96-well tissue-culture sterile plates. Compound and no compound controls were prepared in DMEM containing 4% FCS, 1:100 Penicillin/Streptomysin (Gibco-BRL), 1:100 L-glutamine and 5% DMSO in the dilution plate (0.5% DMSO final concentration in the assay). Compound/DMSO mixes were added to the cells and incubated for 4 days at 37° C. After 4 days, cells were first assessed for cytotoxicity using alamar Blue (Trek Diagnotstic Systems) for a CC50 reading. The toxicity of compound (CC50) was determined by adding 1/10th volume of alamar Blue to the media incubating the cells. After 4 h, the fluorescence signal from each well was read, with an excitation wavelength at 530 nm and an emission wavelength of 580 nm, using the Cytofluor Series 4000 (Perspective Biosystems). Plates were then rinsed thoroughly with Phosphate-Buffered Saline (PBS) (3 times 150 μl).

NS3/4A protease complex = molecular target: T1, NS3/4A protease complex (UniProt P27958); experiment: HCV NS3/4A protease complex enzyme assay (strain not stated); format: biochemical; conditions: Table 2; strain and unit inferred
T1 construct: fused on or other part: three-lysine solubilising tail at the C-terminus of NS4A; probably a His tag from pET21b (Ni-NTA purification)
T1 sequence (P27958 1027-1657, one chain of several): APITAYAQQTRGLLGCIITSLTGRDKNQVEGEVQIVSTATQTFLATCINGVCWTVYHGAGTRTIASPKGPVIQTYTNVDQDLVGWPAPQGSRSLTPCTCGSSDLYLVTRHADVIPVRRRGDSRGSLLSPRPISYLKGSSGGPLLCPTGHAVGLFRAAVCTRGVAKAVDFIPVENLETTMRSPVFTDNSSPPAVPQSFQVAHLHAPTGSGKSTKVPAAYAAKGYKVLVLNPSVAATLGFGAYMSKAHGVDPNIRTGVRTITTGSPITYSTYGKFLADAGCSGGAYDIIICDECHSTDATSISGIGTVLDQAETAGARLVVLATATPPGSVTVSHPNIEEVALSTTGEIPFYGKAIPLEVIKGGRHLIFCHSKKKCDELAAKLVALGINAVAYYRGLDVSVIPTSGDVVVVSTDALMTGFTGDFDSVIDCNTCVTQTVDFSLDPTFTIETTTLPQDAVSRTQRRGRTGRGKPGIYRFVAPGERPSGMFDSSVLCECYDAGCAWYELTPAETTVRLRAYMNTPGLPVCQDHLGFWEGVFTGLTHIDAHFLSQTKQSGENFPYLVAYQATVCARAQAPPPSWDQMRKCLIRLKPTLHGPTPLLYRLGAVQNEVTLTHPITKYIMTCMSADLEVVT
Text: The purpose of this in vitro assay was to measure the inhibition of HCV NS3 protease complexes, derived from the BMS strain, H77 strain or J4L6S strain, as described above, by compounds of the present disclosure. This assay provides an indication of how effective compounds of the present disclosure would be in inhibiting HCV NS3 proteolytic activity.
In order to monitor HCV NS3/4A protease activity, an NS3/4A peptide substrate was used. The substrate was RET S1 (Resonance Energy Transfer Depsipeptide Substrate; AnaSpec, Inc. cat #22991)(FRET peptide), described by Taliani et al. in Anal. Biochem. 240(2):60-67 (1996). The sequence of this peptide is loosely based on the NS4A/NS4B natural cleavage site for the HCV NS3 protease except there is an ester linkage rather than an amide bond at the cleavage site. The peptide also contains a fluorescence donor, EDANS, near one end of the peptide and an acceptor, DABCYL, near the other end. The fluorescence of the peptide is quenched by […] resonance energy transfer (RET) between the donor and the acceptor, but as the NS3 protease cleaves the peptide the products are released from RET quenching and the fluorescence of the donor becomes apparent.
The peptide substrate was incubated with one of the three recombinant NS3/4A protease complexes, in the absence or presence of a compound of the present disclosure. The inhibitory effects of a compound were determined by monitoring the formation of fluorescent reaction product in real time using a Cytofluor Series 4000.
Assay buffer: 50 mM HEPES, pH 7.5; 0.15 M NaCl; 0.1% Triton; 15% Glycerol; 10 mM βME. Substrate: 2 μM final concentration (from a 2 mM stock solution in DMSO stored at −20° C.). HCV NS3/4A protease type 1a (1b), 2-3 nM final concentration (from a 5 μM stock solution in 25 mM HEPES, pH 7.5, 20% glycerol, 300 mM NaCl, 0.2% Triton-X100, 10 mM βME). For compounds with potencies approaching the assay limit, the assay was made more sensitive by adding 50 μg/ml Bovine Serum Albumin (Sigma) to the assay buffer and reducing the end protease concentration to 300 pM.
The assay was performed in a 96-well polystyrene black plate from Falcon. Each well contained 25 μl NS3/4A protease complex in assay buffer, 50 μl of a compound of the present disclosure in 10% DMSO/assay buffer and 25 μl substrate in assay buffer. A control (no compound) was also prepared on the same assay plate. The enzyme complex was mixed with compound or control solution for 1 min before initiating the enzymatic reaction by the addition of substrate. The assay plate was read immediately using the Cytofluor Series 4000 (Perspective Biosystems). The instrument was set to read an emission of […] at 25° C. Reactions were generally followed for approximately 15 min.
The percent inhibition was calculated with the following equation: […]
where δF is the change in fluorescence over the linear range of the curve. A non-linear curve fit was applied to the inhibition-concentration data, and the 50% effective concentration (IC50) was calculated by the use of Excel XLfit software using the equation, y=A+((B−A)/(1+((C/x)̂D))).

| Structure (SMILES) | pEC50 [1] | pIC50 (NS3/4A protease complex) |
| --- | --- | --- |
| COc1ccc2c(O[C@@H]3C[C@H]4C(=O)N[C@]5(C(=O)NS(=O)(=O)C6CC6)C[C@H]5/C=C\CCCCC[C@H](Nc5nc(-c6ccccc6)cs5)C(=O)N4C3)nccc2c1 [Compound 5] | 8.09 | 8.52 |
| COc1ccc(N[C@H]2CCCCC/C=C\[C@@H]3C[C@@]3(C(=O)NS(=O)(=O)C3CC3)NC(=O)[C@@H]3C[C@@H](Oc4ncc(OC)c5ccc(Cl)cc45)CN3C2=O)cn1 (single isomer, unassigned) [Compound 2] | 8.04 | 8.22 |
| COc1cnc(O[C@@H]2C[C@H]3C(=O)N[C@]4(C(=O)NS(=O)(=O)C5CC5)C[C@H]4/C=C\CCCCC[C@H](Nc4nc(-c5ccc(OC(F)(F)F)cc5)cs4)C(=O)N3C2)c2cc(Cl)ccc12 [Compound 6] | 8.06 | 8.70 |
| COc1ccc2c(O[C@@H]3C[C@H]4C(=O)N[C@]5(C(=O)NS(=O)(=O)C6CC6)C[C@H]5/C=C\CCCCC[C@H](Nc5nc(-c6ccc(F)cc6F)cs5)C(=O)N4C3)nccc2c1 [Compound 4] | 7.86 | 7.96 |
| COc1ccc2c(O[C@@H]3C[C@H]4C(=O)N[C@]5(C(=O)NS(=O)(=O)C6CC6)C[C@H]5/C=C\CCCCC[C@H](Nc5nc(-c6ccc(OC(F)(F)F)cc6)cs5)C(=O)N4C3)nccc2c1 [Compound 3] | 8.21 | 8.30 |
